Patent US20080269102A1, “3-(2-Alkoxycarbonyloxy-Phenyl) Acrylic Acid Esters And Their Use As Precursors For The Delivery Of Olfactory Compounds” (GIVAUDAN SA, priority 2004, published 2008)

Legend:
[1] = UV-spectra / colour comparison of protected and non-protected fragrance precursor in presence of a fabric conditioner; assay type: physicochemical; conditions: 0.1 mg/ml in CH3CN/H2O (3:2), visually judged
Protocol: UV-Spectra Comparison (Protected/Non Protected Fragrance in Presence of a Fabric Conditioner)
Solutions A to D, 5 ml each, were prepared using CH3CN/H2O (3:2) as a solvent and their colour visually judged.
After adding a fabric conditioner to a solution comprising an unprotected fragrance precursor (solution A/B) the solution turned bright yellow, whereas a solution comprising a protected fragrance precursor (solution C/D) remains colourless.
The UV-spectra of solutions A to D were recorded and are depicted in FIG. 1.

[2] = additive fabric conditioner (30 mg)

melting point [°C]	Colour [1, 2]	Colour ([1]; additive none)	Structure (SMILES)
37 to 39	–	–	CC(C)=CCCC(C)CCOC(=O)C=Cc1ccccc1O (stereo not drawn) [Example 1, 3-(2-Hydroxy-phenyl)acrylic acid 3,7-dimethyl-oct-6-enyl ester]
58	Bright	colourless	C=CCCCCCCCCOC(=O)C=Cc1ccccc1O [Example 2, 3-(2-Hydroxy-phenyl)acrylic acid dec-9-enyl ester]
–	colourless	colourless	C=CCCCCCCCCOC(=O)C=Cc1ccccc1OC(=O)Oc1ccccc1C=CC(=O)OCCCCCCCCC=C [Example 3]
